Source: the NIST ThermoML archive (doi:10.1021/je700690q)
± gives the expanded uncertainty stated by the source.

Settings: Liquid, Closed cell (Static) method

| SMILES | vapor or sublimation pressure (364.52 K) | other results |
| --- | --- | --- |
| CC(C)(C)O [2-methylpropan-2-ol] | 143.3 ± 1 kPa | – |
| C/C=C/C [(E)-2-butene] | 1268.7 ± 5.7 kPa [middle of 5 runs] | – |
| CCC(C)O (stereo unspecified) [butan-2-ol] | 75.4 ± 0.9 kPa | – |
| CO [methanol] | 267.6 ± 1.4 kPa | – |
| CCCO [propan-1-ol] | – | vapor or sublimation pressure (364.53 K): 81.2 ± 0.9 kPa |
| CC(C)O [propan-2-ol] | – | vapor or sublimation pressure (364.51 K): 144.1 ± 1 kPa |
